Test results published in US20200079812A1, “UV-B ABSORBING COMPOUNDS ISOLATED FROM PLANTS” (MAX-PLANCK-GESELLSCHAFT ZUR FÖRDERUNG DER WISSENSCHAFTEN …, priority 2015, published 2020).
Values joined by “and” are separate entries in the source; they are usually repeats but may differ in a detail not shown here. Equal values may be shown once.

Assay: UV-B absorption profile (UV-VIS spectra, HPLC-PDA profiling)
Format: physicochemical
Description: Column chromatography was carried out over ODS (Nacalai Tesque, Cosmosil 75C18-OPN). HPLC analysis was carried out on an Atlantis® (ϕ4.6×150 mm, Waters) at a flow rate of 0.5 ml min^1. Preparative HPLC was performed on a LC 10A system (Shimadzu) using an Inertsil® ODS-EP 5 m ($6.0×150 mm) at 30° C. and monitoring was accomplished by PDA (200-600 nm). HPLC-PDA-ESI-MS (HPLC/photodiode array detection/electrospray ionization mass spectrometry) was performed on a Finnigan LCQ-DECA mass spectrometer (ThermoQuest, San Jose, Calif., USA) and an Agilent HPLC 1100 series (Agilent Technologies, Palo Alto, Calif., USA). HR-ESI-MS was performed on an Exactive™ mass spectrometer (ThermoQuest, San Jose, Calif., USA). Optical rotations were determined on a JASCO P-1020. UV spectra were recorded on a JASCO V-560. NMR data were recorded on JEOL JNM ECP-600. The deuterated solvent CD3OD was used for peak 4. Coupling constants are expressed in Hz.
UV-VIS spectra in the range between 260 nm and 450 nm were recorded and analyzed via HPLC-PDA profiling for kaempferol-3-Glc-2″-Rha-7Rha (FIG. 3A), saiginol A (kaempferol-3-Glc-2″-Rha-6″-sinapoyl-7Rha, FIG. 3B) and sinapoyl-glucose (FIG. 3C). HPLC-PDA (HPLC/photodiode array detection) was performed on Dionex Ultimate 3000 system (San Jose, Calif., USA). […]

UV-B absorption (efficiency / UV-B absorbent properties) (UV-VIS spectra 260-450 nm, HPLC-PDA profiling, FIG. 3)	SMILES	Amax (UV-VIS absorption maximum) (UV-VIS spectrum, UV (MeOH))
	COc1cc(/C=C/C(=O)OC[C@H]2O[C@@H](Oc3c(-c4ccc(O)cc4)oc4cc(O[C@@H]5O[C@@H](C)[C@H](O)[C@@H](O)[C@H]5O)cc(O)c4c3=O)[C@H](O[C@@H]3O[C@@H](C)[C@H](O)[C@@H](O)[C@H]3O)[C@@H](O)[C@@H]2O)cc(OC)c1O [Saiginol A, Kaempferol-3-O-[2-O-(α-L-rhamnopyranosyl)-6-O-(sinapoyl)-β-D-glucopyranoside]-7-O-α-L-rhamnopyranoside]	201.5 nm and 223.0 nm and 266.5 nm and 331.5 nm
much less efficient	CC1OC(Oc2cc(O)c3c(=O)c(OC4OC(CO)C(O)C(O)C4OC4OC(C)C(O)C(O)C4O)c(-c4ccc(O)cc4)oc3c2)C(O)C(O)C1O (centres unmarked) [kaempferol-3-Glc-2″-Rha-7Rha, kaempferol-3-O-Glc-2″-O-Rha-7-O-Rha, reference compound]	
